Columns and labels:
S.mutans biofilms = test: Follow-up observation of pH of washes of a laboratory model of S. mutans biofilms in 10% sucrose; assay type: cell-based, Streptococcus mutans; details: 10% sucrose; for Value of pH decrease within 30 min. of measurement (%): compared to the initial value
Description: Example No. 2. Follow-up observation of pH of washes of a laboratory model of S. mutans biofilms.
Inoculum of S.mutans control strain was prepared from an ampoule. The ampoule with the dried strain was opened sterilely over a drier or a tray. The upper end of the ampoule was heated on a burner flame, and paraffin was removed; then a piece of sterile absorbent cotton moistened in sterile water was carefully touched to the pulled end of the ampoule so that a small crack appeared, and the same wet cotton was passed around the tip of the ampoule. After the crack had formed, the end of the ampoule was removed with a light blow of tweezers. After opening the ampoule, 0.3-0.5 ml of heart-brain broth was sterilely poured in. After dissolution of the dry contents, the ampoule was transferred with a Pasteur pipette into tubes with 2 ml of heart-brain broth and grown at 37°C for 2 hours in a thermostat in 5% CO2 medium. To restore full viability, 1-2 passages on nutrient media appropriate for the microbes of the species were required. 2 Petri dishes with agar containing 5% horse blood were seeded with 0.1 ml of a 2-hour culture on heart-brain broth of the strain. Petri dishes were incubated at 37°C for 18 hours in an incubator containing 5% CO2. Gram stained smears were prepared from the grown colonies to assess the tinctorial, phenotypic properties and homogeneity of bacteria. Species membership was confirmed using MALDI-TOF reference bases.
Aqueous solutions of nisin in concentrations of 0.004 and 0.008% were taken as the working solutions for testing. […] Distilled water was used as a negative control. […] Urea was chosen due to its ability to alkalinize the environment in bacterial biofilms (Jadon et al., 2018). During the assay, a 10% sucrose solution was used, which is known to be readily metabolized by cariogenic bacteria to acid, thus contributing to the overall acidification of the medium.
The contents of the wells were extracted using an aspirator. All 6 wells of the first row were filled with 1 ml of deionized water and left for 5 min. The water was extracted with an aspirator; 1 ml of the test solution was added into the wells; in 1 min the component was removed, the wells were glazed for 1 min with deionized water, then it was removed. 250 µl of 10% sucrose was added to the wells and biofilms were scraped off the well walls with a disposable plastic loop. The resulting suspension was transferred by pipette into three Eppendorf tubes: contents of wells 1 and 2 into Eppendorf tube No. 1, contents of wells 3 and 4 into Eppendorf tube No. 2, contents of wells 5 and 6 into Eppendorf tube No. 3; next, the measurement of pH started immediately. Time points of the measurement are: 0, 1, 2, 3, 4, 5, 6, 7, 8, 9, 10, 15, 20, 30 min. After the test was finished, the electrode was washed and the described procedure was repeated for the next solution under study.

[1] = tested on: Streptococcus mutans No. 22081; test: Effect of nisin concentrations on growth and biomass accumulation of S.mutans, serial two-fold dilutions micromethod, 16-hour follow-up (optical density A565 nm); assay type: cell-based
From the text: Example No. 1. Determination of the effect of different concentrations of nisin on growth and biomass accumulation of S.mutans No. 22081 in 16-hour follow-up.
Aqueous solution of nisin in different concentrations was used as the working solution.
To prepare the reaction mixture containing the tested component, a method of serial twofold dilutions in heart-brain broth (Series 201181, valid till 012025., CONDALAB, Spain), a micromethod (flat-bottom 96-well plate), for which serial dilutions of the investigated component were prepared in liquid nutrient medium. When setting the methods of serial dilutions, control of culture growth on medium without the active component was carried out, and the quality of medium and investigated preparations was controlled using reference strains of the species. The purity of the microorganism suspension used for inoculation was also controlled by sowing on non-selective media.
The results of the micromethod formulation to evaluate the effect of drugs on the growth and development of the culture of Streptococcus mutans No. 22081 were recorded spectrophotometrically in an automatic kinetic format (intermittent shaking, T-37°C, measurement of optical density A565 nm every hour in automatic mode).

[2] = heart-brain broth, 37°C, 16-hour follow-up

Substance: Nisin
- pH of mechanically disrupted S.mutans biofilms (S.mutans biofilms; Nisin 0.004%, 0 min): 6.09±0.006
- pH of mechanically disrupted S.mutans biofilms (S.mutans biofilms; Nisin 0.004%, 1 min): 6.08±0.006
- pH change (in brackets), S.mutans biofilms (S.mutans biofilms; Nisin 0.004%, 1 min vs previous time point): -0.01
- pH of mechanically disrupted S.mutans biofilms (S.mutans biofilms; Nisin 0.004%, 2 min): 6.07±0.006
- pH change (in brackets), S.mutans biofilms (S.mutans biofilms; Nisin 0.004%, 2 min vs previous time point): -0.01
- pH of mechanically disrupted S.mutans biofilms (S.mutans biofilms; Nisin 0.004%, 3 min): 6.05±0.006
- pH change (in brackets), S.mutans biofilms (S.mutans biofilms; Nisin 0.004%, 3 min vs previous time point): -0.02
- pH of mechanically disrupted S.mutans biofilms (S.mutans biofilms; Nisin 0.004%, 4 min): 6.05±0
- pH change (in brackets), S.mutans biofilms (S.mutans biofilms; Nisin 0.004%, 4 min vs previous time point): 0
- pH of mechanically disrupted S.mutans biofilms (S.mutans biofilms; Nisin 0.004%, 5 min): 6.04±0.006
- pH change (in brackets), S.mutans biofilms (S.mutans biofilms; Nisin 0.004%, 5 min vs previous time point): -0.01
- pH of mechanically disrupted S.mutans biofilms (S.mutans biofilms; Nisin 0.004%, 6 min): 6.05±0.006
- pH change (in brackets), S.mutans biofilms (S.mutans biofilms; Nisin 0.004%, 6 min vs previous time point): +0.01
- pH of mechanically disrupted S.mutans biofilms (S.mutans biofilms; Nisin 0.004%, 7 min): 6.05±0.006
- pH change (in brackets), S.mutans biofilms (S.mutans biofilms; Nisin 0.004%, 7 min vs previous time point): 0
- pH of mechanically disrupted S.mutans biofilms (S.mutans biofilms; Nisin 0.004%, 8 min): 6.05±0
- pH change (in brackets), S.mutans biofilms (S.mutans biofilms; Nisin 0.004%, 8 min vs previous time point): 0
- pH of mechanically disrupted S.mutans biofilms (S.mutans biofilms; Nisin 0.004%, 9 min): 6.05±0
- pH change (in brackets), S.mutans biofilms (S.mutans biofilms; Nisin 0.004%, 9 min vs previous time point): 0
- pH of mechanically disrupted S.mutans biofilms (S.mutans biofilms; Nisin 0.004%, 10 min): 6.06±0.006
- pH change (in brackets), S.mutans biofilms (S.mutans biofilms; Nisin 0.004%, 10 min vs previous time point): +0.01
- pH of mechanically disrupted S.mutans biofilms (S.mutans biofilms; Nisin 0.004%, 15 min): 6.05±0.006
- pH change (in brackets), S.mutans biofilms (S.mutans biofilms; Nisin 0.004%, 15 min vs previous time point): -0.01
- pH of mechanically disrupted S.mutans biofilms (S.mutans biofilms; Nisin 0.004%, 20 min): 6.04±0.006
- pH change (in brackets), S.mutans biofilms (S.mutans biofilms; Nisin 0.004%, 20 min vs previous time point): -0.01
- pH of mechanically disrupted S.mutans biofilms (S.mutans biofilms; Nisin 0.004%, 30 min): 6.0±0
- pH change (in brackets), S.mutans biofilms (S.mutans biofilms; Nisin 0.004%, 30 min vs previous time point): -0.04
- Value of pH decrease within 30 min. of measurement (%) (S.mutans biofilms; Nisin 0.004%): -1.47%
- Value of pH decrease within 30 min. of measurement (%) (S.mutans biofilms; Nisin 0.008%): -3.15%
- pH of mechanically disrupted S.mutans biofilms (S.mutans biofilms; Nisin 0,008%, 0 min): 6.33±0
- pH of mechanically disrupted S.mutans biofilms (S.mutans biofilms; Nisin 0,008%, 1 min): 6.32±0.006
- pH change (in brackets), S.mutans biofilms (S.mutans biofilms; Nisin 0,008%, 1 min vs previous time point): -0.01
- pH of mechanically disrupted S.mutans biofilms (S.mutans biofilms; Nisin 0,008%, 2 min): 6.31±0.006
- pH change (in brackets), S.mutans biofilms (S.mutans biofilms; Nisin 0,008%, 2 min vs previous time point): -0.01
- pH of mechanically disrupted S.mutans biofilms (S.mutans biofilms; Nisin 0,008%, 3 min): 6.28±0.01
- pH change (in brackets), S.mutans biofilms (S.mutans biofilms; Nisin 0,008%, 3 min vs previous time point): -0.03
- pH of mechanically disrupted S.mutans biofilms (S.mutans biofilms; Nisin 0,008%, 4 min): 6.24±0.006
- pH change (in brackets), S.mutans biofilms (S.mutans biofilms; Nisin 0,008%, 4 min vs previous time point): -0.04
- pH of mechanically disrupted S.mutans biofilms (S.mutans biofilms; Nisin 0,008%, 5 min): 6.21±0.006
- pH change (in brackets), S.mutans biofilms (S.mutans biofilms; Nisin 0,008%, 5 min vs previous time point): -0.03
- pH of mechanically disrupted S.mutans biofilms (S.mutans biofilms; Nisin 0,008%, 6 min): 6.21±0
- pH change (in brackets), S.mutans biofilms (S.mutans biofilms; Nisin 0,008%, 6 min vs previous time point): -0.03
- pH of mechanically disrupted S.mutans biofilms (S.mutans biofilms; Nisin 0,008%, 7 min): 6.23±0
- pH change (in brackets), S.mutans biofilms (S.mutans biofilms; Nisin 0,008%, 7 min vs previous time point): +0.02
- pH of mechanically disrupted S.mutans biofilms (S.mutans biofilms; Nisin 0,008%, 8 min): 6.23±0
- pH change (in brackets), S.mutans biofilms (S.mutans biofilms; Nisin 0,008%, 8 min vs previous time point): 0
- pH of mechanically disrupted S.mutans biofilms (S.mutans biofilms; Nisin 0,008%, 9 min): 6.21±0
- pH change (in brackets), S.mutans biofilms (S.mutans biofilms; Nisin 0,008%, 9 min vs previous time point): -0.02
- pH of mechanically disrupted S.mutans biofilms (S.mutans biofilms; Nisin 0,008%, 10 min): 6.2±0.006
- pH change (in brackets), S.mutans biofilms (S.mutans biofilms; Nisin 0,008%, 10 min vs previous time point): -0.01
- pH of mechanically disrupted S.mutans biofilms (S.mutans biofilms; Nisin 0,008%, 15 min): 6.18±0
- pH change (in brackets), S.mutans biofilms (S.mutans biofilms; Nisin 0,008%, 15 min vs previous time point): -0.02
- pH of mechanically disrupted S.mutans biofilms (S.mutans biofilms; Nisin 0,008%, 20 min): 6.17±0.006
- pH change (in brackets), S.mutans biofilms (S.mutans biofilms; Nisin 0,008%, 20 min vs previous time point): -0.01
- pH of mechanically disrupted S.mutans biofilms (S.mutans biofilms; Nisin 0,008%, 30 min): 6.13±0.006
- pH change (in brackets), S.mutans biofilms (S.mutans biofilms; Nisin 0,008%, 30 min vs previous time point): -0.04
- effect on the pH of cariogenic biofilm affected by sucrose (S.mutans biofilms; nisin 0.004-0.008%): stabilizing effect
- effect on growth and biomass accumulation ([1]; concentrations lower than 0.0039%): no significant effect
- concentrations that significantly inhibited growth and biomass accumulation, but had no bactericidal effect [1, 2]: 0.0039-0.0078%
- final concentration with pronounced antibacterial effect [1, 2]: 0.0078-0.125%
- minimum-suppressive concentration [1, 2]: 0.0039%
- antibacterial and inhibitory activity against S.mutans ([1]; nisin solution in concentration of 0.008% and below): not able to have antibacterial and inhibitory activity
